Assay results reported in paper PMC5397615, “Rapid Identification and Isolation of Inhibitors of Rat Lens Aldose Reductase and Antioxidant in Maackia amurensis” (BioMed Research International, 2017).

Experiments:
[1] = ABTS radical scavenging activity (TEAC assay); conditions: for IC50: read-out: Antioxidant IC50
[2] = biological target: T1, rat lens aldose reductase (RLAR) (Rattus norvegicus, UniProt P07943); assay: Rat lens AR inhibitory activity assay; format: biochemical; conditions: isolated compounds; for IC50: read-out: RLAR inhibition IC50
T1 construct: Rat lens (RL) homogenate was prepared according to the modified method of Hayman and Kinoshita; from tissue; host or cells: lens of male Sprague-Dawley rats (homogenate supernatant, partially purified)

rat lens AR = biological target: T2, rat lens AR (Rattus norvegicus, UniProt P07943); assay: HPLC microfractionation rat lens AR assay; format: biochemical; design: concentration or dose not given beside the values; conditions: amount of efficacy in HPLC microfractionation (Table 3)
T2 construct: Rat lens (RL) homogenate was prepared according to the modified method of Hayman and Kinoshita; from tissue; host or cells: lens of male Sprague-Dawley rats (homogenate supernatant, partially purified)

[3] = Partition coefficient (K) in two-phase HSCCC solvent systems; format: physicochemical
[4] = ABTS-offline HPLC assay of the EtOAc fraction; conditions: 254 nm; for Peak area change after ABTS (in words): EtOAc fraction spiked with ABTS solution, Figure 1(a); for Antioxidant quantitative reduction (%): amount of peak decrease in ABTS-offline HPLC
[5] = n-Hexane-ethyl acetate-methanol-water 2.5 : 7.5 : 5 : 5 (v/v)
[6] = n-Hexane-ethyl acetate-methanol-water 3 : 7 : 4.5 : 5.5 (v/v)
[7] = n-Hexane-ethyl acetate-methanol-water 4 : 6 : 2.5 : 7.5 (v/v)
[8] = n-Hexane-ethyl acetate-methanol-water 4 : 6 : 3.5 : 5.5 (v/v)

Compound	IC50 ([1]; isolated compounds) [µM]	IC50 [2] [µM]	RLAR inhibition, Inhibition (%) (rat lens AR)	K values ([3]; n-Heptane-ethyl acetate-methanol-water 1 : 6 : 1 : 6 (v/v))	K values [3, 5]	K values [3, 6]	K values [3, 7]	K values [3, 8]	Antioxidant IC50 ([1]; concentration of 50% inhibition) [µg/mL]	K values ([3]; n-Hexane-ethyl acetate-methanol-water 1 : 3 : 1 : 3 (v/v))	RLAR activity (in words) [2]	Antioxidant activity (in words) ([1]; isolated compounds)	Peak area change after ABTS (in words) [4]	Antioxidant quantitative reduction (%) [4] [%]	Antioxidant TEAC (Trolox equivalent antioxidant capacity) ([1]; relative to Trolox = 1.00)
Oc1ccc(/C=C/c2cc(O)cc(O)c2)cc1 [Compound 6, resveratrol]	11.05 ± 0.04	118 ± 3.12	29.31	9.56	0.57	0.59	4.62	0.90							
Cc1c(C)c2c(c(C)c1O)CCC(C)(C(=O)O)O2 (stereo not drawn) [Trolox, 6-hydroxy-2,5,7,8-tetrame-thylchroman-2-carboxylic acid, reference compound]									8.72 ± 0.01						1.00
O=C(/C=C/c1ccc(O)c(O)c1)O[C@@H]1C[C@](O)(C(=O)O)C[C@@H](O)[C@H]1O [Compound 1, chlorogenic acid]		4.2 ± 3.2	51.02												
COc1cc(/C=C/C(=O)O)ccc1O [Compound 3, trans-ferulic acid]	13.51 ± 0.04	> 500	5.21								did not have RLAR activity		peak area reductions	20.06	
Oc1cc(O)cc(/C=C/c2ccc(O)c(O)c2)c1 [Compound 5, piceatannol]	6.73 ± 0.04	> 500			0.37	0.34	3.91	0.37			did not have RLAR activity		peak area reductions	34.68	

Now from value to compound, other results behind:

IC50 ([1]; isolated compounds) [µM]	IC50 [2] [µM]	RLAR inhibition, Inhibition (%) (rat lens AR)	K values ([3]; n-Heptane-ethyl acetate-methanol-water 1 : 6 : 1 : 6 (v/v))	K values [3, 5]	K values [3, 6]	K values [3, 7]	K values [3, 8]	Antioxidant IC50 ([1]; concentration of 50% inhibition) [µg/mL]	K values ([3]; n-Hexane-ethyl acetate-methanol-water 1 : 3 : 1 : 3 (v/v))	RLAR activity (in words) [2]	Compound	Antioxidant activity (in words) ([1]; isolated compounds)	Peak area change after ABTS (in words) [4]	Antioxidant quantitative reduction (%) [4] [%]	Antioxidant TEAC (Trolox equivalent antioxidant capacity) ([1]; relative to Trolox = 1.00)
> 500	50.4 ± 2.17	43.37									COc1c(O[C@@H]2O[C@H](CO)[C@@H](O)[C@H](O)[C@H]2O)cc2occ(-c3ccc(O)cc3)c(=O)c2c1O [Compound 4, tectoridin]	did not have antioxidant activity	slightly decreased	8.43	
> 500	57.1 ± 3.23	38.54		2.04	2.52	15.01	3.73		35.34		O=c1c(-c2ccc(O)cc2)coc2cc(O)cc(O)c12 [Compound 8, genistein]			2.24	
> 500	69.2 ± 2.57	30.11		0.33	0.40	3.39	0.39				COc1ccc(-c2coc3cc(O)ccc3c2=O)cc1 [Compound 9, formononetin]			0.69	
> 500	152 ± 2.91	28.14									O=c1c(-c2ccc(O)cc2)coc2cc(O)ccc12 [Compound 7, daidzein]			0.48	
